In experiment [1] the target is T1, Mu-type opioid receptor (Cavia porcellus, UniProt P97266). The experiment in a line: Agonist activity was assessed in an guinea pig ileum (GPI) smooth muscle bioassay.
Experiment [2] deals with T1, Mu-type opioid receptor. The experiment in a line: Binding affinity against mu opioid receptor using [3H]DAMGO in guinea pig ileum.

Structures are written as SMILES. Bounds are passed on as bounds.

The record followed here is BindingDB's records for doi:10.1021/jm00051a016 (University of Michigan, 1995).

As usually defined, the IC50 is the point on the concentration scale where inhibition reaches its midpoint. Lower therefore signals inhibition by little substance. As a reminder, the Ki is a measure of affinity in units of concentration, obtained from inhibition or displacement. A higher Ki goes with lower affinity.

T1 sequence (P97266 whole entry): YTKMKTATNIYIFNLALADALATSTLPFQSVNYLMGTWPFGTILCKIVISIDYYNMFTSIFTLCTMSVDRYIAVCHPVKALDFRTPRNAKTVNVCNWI

Consider `CN1C(=O)[C@H](CS)N(C(=O)[C@@H](N)Cc2ccc(O)cc2)C(=O)[C@@H](C(C)(C)S)NC(=O)[C@@H]1Cc1ccccc1` [4-[2-Amino-3-(4-hydroxy-phenyl)-propionyl]-9-benzyl-3-mercaptomethyl-6-(1-mercapto-1-methyl-ethyl)-1-methyl-[1,4,7]triazonane-2,5,8-trione], for which, at Mu-type opioid receptor [1], the IC50 is greater than 30 µM. On Mu-type opioid receptor [2], this molecule gave a Ki greater than 10 µM.
